Test results taken from article PMC7930822, “Phase I Trial to Evaluate the Tolerance, Pharmacokinetics and Efficacy of the Broad-Spectrum ErbB Family Inhibitor Larotinib Mesylate in Patients With Advanced Solid Tumors” (Frontiers in Pharmacology, 2021).
Where a name gives a salt, the structure may show the parent alone. Read-outs that look alike come from different tables or passages of the source.

Assays:
[1] = test system: patients with advanced solid tumors; experiment: tumor evaluation by RECIST version 1.1; type: in vivo, human; conditions: for Disease control, n (%): CR, PR and SD; for Objective response, n (%): complete plus partial response
Protocol: Tumor evaluation was performed at screening, the end of cycle 1, and every two cycles of subsequent treatment according to RECIST version 1.1. The disease control rate (DCR) (including CR, PR and SD), objective remission rate (ORR) (including CR and PR), and progression-free survival (PFS) were also evaluated.
Blood samples for EGFR mutation site analyses were collected in screening, cycle 1 day 29, cycle 3 days 29 and every 8 weeks for the subsequent follow-up. Second-generation sequencing method was used to detect the amplification and mutation of the related tumor genes.

Sprague–Dawley rats = conditions: rat, in vivo
Protocol: (§1) Animal toxicology studies of larotinib mesylate were conducted in both Sprague–Dawley rats and beagle dogs. […] The maximal tolerable doses (MTDs) were 20 and 25 mg/kg in Sprague–Dawley rats and beagle dogs, respectively.
(§2) According to the guidance for clinical trials of antitumor agents published by the Center for Drug Evaluation and Research in China, for cytotoxic antitumor agents, the initial dose in a phase I study can be calculated as 1/10 of the MTD in rodents or 1/6 of the MTD in non-rodent animals ([CFDA, 2012]). For non-cytotoxic antitumor agents, because of their relatively lower toxicity, the initial dose can be set higher. According to the reported preclinical results for larotinib mesylate, the MTD in Sprague–Dawley rats translated to a human equivalent dose of 192 mg/d according to body surface area (calculated by 60 kg body weight), for which 1/10 is 19.2 mg/d ([FDA, 2005]). […] Taking the above results for the toxicology, preclinical pharmacology and pharmacodynamics, and drug specifications (10, 50 and 100 mg) of larotinib mesylate into account, we calculated a recommended starting dose of 50 mg larotinib mesylate for a phase I, first-in-human clinical study, lower than human equivalent 1/6 MTD translated from beagle dogs and near the human equivalent effective dose translated from tumor-bearing mice. […]

beagle dogs = conditions: dog, in vivo
Protocol: as §1, §2

P-glycoprotein = conditions: cited from earlier work
[2] = target: B-lymphoid tyrosine kinase (BLK); design: method as in data not published; conditions: ref data not published; cited from earlier work
wild-type EGFR [3] = experiment: in vitro kinase inhibition, wild-type EGFR; type: biochemical
Protocol: Larotinib mesylate (Figure 1) is a novel, potent broad-spectrum TKI with EGFR as the main target with a 50% inhibitory concentration (IC50) of 0.6 nM (data not published). […] We hypothesized that the characteristics of larotinib mesylate that facilitate simultaneous inhibition of multiple kinases may improve the tumor inhibiting effect of the drug and decrease the emergence of resistance to larotinib mesylate in solid tumor cells.

[4] = test system: EGFR with the L861Q mutation; design: method as in data not published; conditions: ref data not published; cited from earlier work
[5] = test system: EGFR with the L858R mutation; design: method as in data not published; conditions: ref data not published; cited from earlier work
EGFR (T790M) = test system: EGFR (T790M); design: method as in data not published; conditions: ref data not published; cited from earlier work
wild-type EGFR [6] = test system: wild-type EGFR; design: method as in data not published; conditions: ref data not published, cited from earlier work
tumor-bearing mice = test system: tumor-bearing mice; design: method as in data not published; conditions: dose of 18 mg/kg, ref data not published; cited from earlier work
[7] = test system: EGFR with a deletion in the exon 19; design: method as in data not published; conditions: ref data not published; cited from earlier work
CYP3A4 = test system: CYP3A4; design: method as in data not published; conditions: in vitro studies; ref data not published; cited from earlier work

With `COc1cc2ncnc(Nc3ccc(F)c(Cl)c3)c2cc1OCCCN1C[C@@H]2OCCO[C@@H]2C1` [larotinib mesylate] the “Complete response, n (%)” value ([1]; 50 mg (n = 3)) was 0 (0), the “Partial response, n (%)” value ([1]; 50 mg (n = 3)) was 0 (0) and the “Progressive disease, n (%)” value ([1]; 50 mg (n = 3)) was 1 (33.3). The “Stable disease, n (%)” value ([1]; 50 mg (n = 3)) was 2 (66.7), the “Disease control, n (%)” value ([1]; 50 mg (n = 3)) was 2 (66.7) and the “Objective response, n (%)” value ([1]; 50 mg (n = 3)) was 0 (0). The “Complete response, n (%)” value ([1]; 100 mg (n = 3)) was 0 (0), the “Partial response, n (%)” value ([1]; 100 mg (n = 3)) was 0 (0) and the “Progressive disease, n (%)” value ([1]; 100 mg (n = 3)) was 1 (33.3). For the same compound, the “Stable disease, n (%)” value ([1]; 100 mg (n = 3)) was 2 (66.7), the “Disease control, n (%)” value ([1]; 100 mg (n = 3)) was 2 (66.7) and the “Objective response, n (%)” value ([1]; 100 mg (n = 3)) was 0 (0). The “Complete response, n (%)” value ([1]; 150 mg (n = 3)) was 0 (0), the “Partial response, n (%)” value ([1]; 150 mg (n = 3)) was 0 (0) and the “Progressive disease, n (%)” value ([1]; 150 mg (n = 3)) was 1 (33.3). For the same compound, the “Stable disease, n (%)” value ([1]; 150 mg (n = 3)) was 2 (66.7), the “Disease control, n (%)” value ([1]; 150 mg (n = 3)) was 2 (66.7) and the “Objective response, n (%)” value ([1]; 150 mg (n = 3)) was 0 (0). The “Complete response, n (%)” value ([1]; 220 mg (n = 3)) was 0 (0), the “Partial response, n (%)” value ([1]; 220 mg (n = 3)) was 1 (33.3) and the “Progressive disease, n (%)” value ([1]; 220 mg (n = 3)) was 0 (0). The “Stable disease, n (%)” value ([1]; 220 mg (n = 3)) was 2 (66.7), the “Disease control, n (%)” value ([1]; 220 mg (n = 3)) was 3 (100) and the “Objective response, n (%)” value ([1]; 220 mg (n = 3)) was 1 (33.3). For the same compound, the “Complete response, n (%)” value ([1]; 300 mg (n = 6)) was 0 (0), the “Partial response, n (%)” value ([1]; 300 mg (n = 6)) was 0 (0) and the “Progressive disease, n (%)” value ([1]; 300 mg (n = 6)) was 4 (66.7). For the same compound, the “Stable disease, n (%)” value ([1]; 300 mg (n = 6)) was 2 (33.3), the “Disease control, n (%)” value ([1]; 300 mg (n = 6)) was 2 (33.3) and the “Objective response, n (%)” value ([1]; 300 mg (n = 6)) was 0 (0). For the same compound, the “Complete response, n (%)” value ([1]; 350 mg (n = 3)) was 0 (0), the “Partial response, n (%)” value ([1]; 350 mg (n = 3)) was 1 (33.3) and the “Progressive disease, n (%)” value ([1]; 350 mg (n = 3)) was 0 (0). The “Stable disease, n (%)” value ([1]; 350 mg (n = 3)) was 2 (66.7), the “Disease control, n (%)” value ([1]; 350 mg (n = 3)) was 3 (100) and the “Objective response, n (%)” value ([1]; 350 mg (n = 3)) was 1 (33.3). The “Complete response, n (%)” value ([1]; 400 mg (n = 3)) was 0 (0), the “Partial response, n (%)” value ([1]; 400 mg (n = 3)) was 0 (0) and the “Progressive disease, n (%)” value ([1]; 400 mg (n = 3)) was 0 (0). For the same compound, the “Stable disease, n (%)” value ([1]; 400 mg (n = 3)) was 3 (100), the “Disease control, n (%)” value ([1]; 400 mg (n = 3)) was 3 (100) and the “Objective response, n (%)” value ([1]; 400 mg (n = 3)) was 0 (0). For the same compound, the “duration of maintained PR” value ([1]; NSCLC patient, 350-mg group, no EGFR-sensitive mutations) was 19 cycles, the “Complete response, n (%)” value ([1]; Total (n = 24)) was 0 (0) and the “Partial response, n (%)” value ([1]; Total (n = 24)) was 2 (8.3). The “Progressive disease, n (%)” value ([1]; Total (n = 24)) was 7 (29.2), the “Stable disease, n (%)” value ([1]; Total (n = 24)) was 15 (62.5) and the “Disease control, n (%)” value ([1]; Total (n = 24)) was 17 (70.8). For the same compound, the “Objective response, n (%)” value ([1]; Total (n = 24)) was 2 (8.3), the “cases of PR among five patients with EGFR mutations at baseline” value ([1]; after cycle one) was 1 and the “cases of SD among five patients with EGFR mutations at baseline” value ([1]; after cycle one) was 4. The “stable disease as best overall response, patients” value ([1]; all dose levels) was 15, the “overall disease control rate (DCR)” value ([1]; all dose levels, 24 evaluable) was 70.8% and the “human equivalent dose of MTD” value (Sprague–Dawley rats) was 192 mg/day. The “human equivalent dose of MTD” value (beagle dogs) was 810 mg/day, the P-glycoprotein substrate (P-glycoprotein) was “substrate of P-glycoprotein” and the IC50 [2] was 102 nM. For the same compound, the “fold greater inhibitory activity than gefitinib” value (wild-type EGFR [3]; ref Baselga and Averbuch, 2000) was 37 fold, the “fold greater inhibitory activity than erlotinib” value (wild-type EGFR [3]; ref Moyer et al., 1997) was 3 fold and the IC50 [4] was 0.423 nM. The IC50 [5] was 0.563 nM, the IC50 (EGFR (T790M)) was 45.2 nM and the IC50 (wild-type EGFR [6]; EGFR as the main target) was 0.6 nM. The IC50 (wild-type EGFR [6]; wild-type EGFR) was 0.611 nM, the tumor-inhibiting rate (tumor-bearing mice) was “exceeding 60%” and the inhibition [7] was “potently inhibited”. The “fraction metabolized by CYP3A4” value (CYP3A4) was “around 85%”.
